Results on 24 molecules are retold here after the supplement of paper PMC5412046.

For experiment [1], the system named is SB.mhdgc-1. The experiment in a line: viability at highest tested concentration (MAXR) relative to DMSO; higher = less cytotoxic. The conditions noted are these: SB.mhdgc-1 (hereditary c.1380delA CDH1 gastric cancer). In a few lines:
(§1)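 The values represent viability normalised to DMSO, expressed at the highest concentration or as trapezoidal area under the curve. Cells were hereditary or sporadic patient-derived gastric cancer cells, 500 in 5 μL medium per 1536 well. They were dosed with 23 nL of compound in DMSO by pintool over 11 threefold dilutions, with each compound's top concentration recorded. CellTiter-Glo was applied 48 h later for 30 min at room temperature before luminescence was read on a ViewLux.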

The subject of experiment [2] is SB.msgc-1. The description is as above. The conditions noted are these: SB.msgc-1 (sporadic gastric cancer). Summed up: as §1
For experiment [3], the system named is SB.mhdgc-1. Put plainly: area under the dose-response curve of % viability (trapezoidal, 11 doses) (% viability x log10 concentration); higher = less cytotoxic. The conditions noted are these: SB.mhdgc-1 (hereditary c.1380delA CDH1 gastric cancer). Summed up: as §1
For experiment [4], the system named is SB.msgc-1. The description is as above. The conditions noted are these: SB.msgc-1 (sporadic gastric cancer). Summed up: as §1

Take `CC(=O)NCC(=O)N1[C@@H]2CC[C@H]1c1ccc(Nc3ncc(C(F)(F)F)c(NC4CCC4)n3)cc12` (top concentration 46.0829 µM): the figures for the viability in the experiment on SB.mhdgc-1 [1] and in the experiment on SB.msgc-1 [2] were 19.9% and 37.4%, respectively. For the same molecule, the “area under the dose-response curve” value in the experiment on SB.mhdgc-1 [3] is 402; in the experiment with SB.msgc-1 [4] it was 472.
For the molecule `CC(C)(C)Cn1c(N)nc2ccc(-c3[nH]c(C(C)(C)C)nc3-c3ccc(F)cc3)nc21` (top concentration 46.0829 µM), the viability – broadly, a read-out of living cells in per cent, often relative to untreated cells – came out at 20.3% in the experiment with SB.mhdgc-1 [1] and 21.3% with SB.msgc-1 [2]. Besides, the results for the “area under the dose-response curve” value with SB.mhdgc-1 [3] and in the experiment with SB.msgc-1 [4] were 432 and 476, respectively.
The matching figures for `CC(C)c1cc(C(=O)N2Cc3ccc(CN4CCN(C)CC4)cc3C2)c(O)cc1O` (top concentration 46.0829 µM): 9.31%, 43%, 443 and 348.
As for `CC(C)c1noc(N2CCC(COc3ccc(-c4ccc([S+](C)(=O)[O-])cc4)nc3)CC2)n1` (top concentration 46.0829 µM), the viability came out at 80.1% in the experiment with SB.mhdgc-1 [1] and 72.3% in the experiment on SB.msgc-1 [2]. The “area under the dose-response curve” value in the experiment on SB.mhdgc-1 [3] came to 621; with SB.msgc-1 [4], 537.
Consider `CC(C)N(CC[C@H](c1ccccc1)c1cc(CO)ccc1O)C(C)C` (top concentration 46.0829 µM), for which the viability worked out at 101% in the experiment with SB.mhdgc-1 [1] and 110% in the experiment with SB.msgc-1 [2]. The “area under the dose-response curve” value was determined as 494 in the experiment on SB.mhdgc-1 [3] and 498 with SB.msgc-1 [4].
Turning to `CC(C)[C@@H](N(CCCN)C(=O)C1=CC=C(C)C=C1)C/2=C(\CC3=CC=CC=C3)C(=O)C4=C(O2)C=C(Cl)C=C4` (top concentration 46.0829 µM), the viability in the experiment with SB.mhdgc-1 [1] was 3.56%; in the experiment on SB.msgc-1 [2] it was 18%. For the same molecule, the “area under the dose-response curve” value worked out at 290 in the experiment on SB.mhdgc-1 [3] and 196 with SB.msgc-1 [4].
Consider `CC/1=C(\CCN2CCC(CC2)C3=NOC4=C3C=CC(=C4)F)C(=O)N/5CCCCC5=N1` (top concentration 46.0829 µM), for which the viability worked out at 65.9% in the experiment with SB.mhdgc-1 [1] and 81.5% with SB.msgc-1 [2]. Further, the “area under the dose-response curve” value with SB.mhdgc-1 [3] was determined as 402; with SB.msgc-1 [4] it was 506.
Regarding `Cc1[nH]c(/C=C2\C(=O)Nc3ccc([S+](=O)([O-])Cc4c(Cl)cccc4Cl)cc32)c(C)c1C(=O)N1CCC[C@@H]1CN1CCCC1` (top concentration 46.0829 µM), the values for the viability with SB.mhdgc-1 [1] and in the experiment on SB.msgc-1 [2] were 0.132% and -1.67%, respectively. Besides, the results for the “area under the dose-response curve” value in the experiment on SB.mhdgc-1 [3] and in the experiment with SB.msgc-1 [4] were 545 and 462, respectively.
Taken in the same sequence, the figures for `CC1=C2N=C([NH]C2=CC(=C1)N3CCOCC3)\C4=C(NC[C@@H](O)C5=CC=CC(=C5)Cl)\C=C/NC4=O` (top concentration 46.0829 µM) were 21%, 28.1%, 314 and 418.
The matching figures for `CC1COC2(CCN(CC2)C/3=N/C(=O)C4=CC(=CC(=C4S3)[N+]([O-])=O)C(F)(F)F)O1` (stereo unspecified) (top concentration 46.0829 µM): 45%, 69.9%, 428 and 520.
Take `CCc1cc2c(cc1N1CCC(N3CCOCC3)CC1)C(C)(C)c1[nH]c3cc(C#N)ccc3c1C2=O` (top concentration 46.0829 µM): the viability in the experiment with SB.mhdgc-1 [1] was 1.11%; with SB.msgc-1 [2], 61.4%. Besides, the “area under the dose-response curve” value came out at 395 in the experiment with SB.mhdgc-1 [3] and 473 in the experiment with SB.msgc-1 [4].
With `CCc1cccc(CC)c1NC(=O)N1Cc2[nH]nc(NC(=O)c3ccc(N4CCN(C)CC4)cc3)c2C1` (top concentration 46.0829 µM), the viability was 65.1% in the experiment with SB.mhdgc-1 [1] and 59% in the experiment on SB.msgc-1 [2]. The “area under the dose-response curve” value with SB.mhdgc-1 [3] amounted to 423; in the experiment on SB.msgc-1 [4], 505.
Taken in the same sequence, the figures for `CCCCOc1c(C(=O)c2c(F)cc(C)cc2F)cnc2[nH]ncc12` (top concentration 46.0829 µM) were 39.2%, 43.7%, 370 and 460.
As for `CCNC(=O)Nc1ccc2ncc(Nc3ccc(C)cc3)nc2n1` (top concentration 46.0829 µM), the viability with SB.mhdgc-1 [1] stood at 20.8%; in the experiment with SB.msgc-1 [2] it was 27%. The entries for the “area under the dose-response curve” value in the experiment on SB.mhdgc-1 [3] and with SB.msgc-1 [4] were 307 and 347, respectively.
Consider `CCn1cc(-c2ccnc3[nH]c(-c4cccc(CN(C)C)c4)cc23)c(-c2ccc(NC(=O)N(C)C)cc2)n1` (top concentration 46.0829 µM), for which the viability was 32.2% in the experiment with SB.mhdgc-1 [1] and 15.2% with SB.msgc-1 [2]. Besides, the “area under the dose-response curve” value in the experiment on SB.mhdgc-1 [3] stood at 367; in the experiment with SB.msgc-1 [4] it was 450.
As to `CN(C)C(=O)[C@H](O)[C@H](Cc1ccccc1)NC(=O)c1cc2cc(Cl)ccc2[nH]1` (top concentration 46.0829 µM), the values for the viability in the experiment with SB.mhdgc-1 [1] and in the experiment on SB.msgc-1 [2] were 59.6% and 55.1%, respectively. Moreover, the “area under the dose-response curve” value with SB.mhdgc-1 [3] and with SB.msgc-1 [4] was 476 throughout.
Regarding `CN(C)c1ccc(-c2nc3c(N4CCN(CC(=O)Nc5nccs5)CC4)c(Cl)cnc3[nH]2)cc1` (top concentration 46.0829 µM), the viability with SB.mhdgc-1 [1] worked out at 42.8%; in the experiment with SB.msgc-1 [2] it was 73%. In addition, the “area under the dose-response curve” value is 410 with SB.mhdgc-1 [3] and 460 in the experiment with SB.msgc-1 [4].
As to `CN(C)Cc1cccc(N/C(=C2\C(=O)Nc3cc(C(=O)N(C)C)ccc32)c2ccccc2)c1` (top concentration 46.0829 µM), the viability in the experiment on SB.mhdgc-1 [1] amounted to 6.66%; with SB.msgc-1 [2], 35.3%. Further, the entries for the “area under the dose-response curve” value in the experiment on SB.mhdgc-1 [3] and in the experiment on SB.msgc-1 [4] were 316 and 452, respectively.
Regarding `Cc1nc(-c2ccc(-c3ccc(C(=O)N4CCc5cc6c(cc54)C4(CCN(C)CC4)CO6)cc3)c(C)c2)no1` (top concentration 46.0829 µM), the viability in the experiment with SB.mhdgc-1 [1] is 114%; with SB.msgc-1 [2], 87.7%. The “area under the dose-response curve” value in the experiment on SB.mhdgc-1 [3] came out at 592; in the experiment on SB.msgc-1 [4], 519.
As to `Cc1cc(CN2CCN(c3c(Br)cnc4[nH]c(-c5ccc(N6CCN(C)CC6)cc5)nc34)CC2)no1` (top concentration 46.0829 µM), the viability in the experiment with SB.mhdgc-1 [1] was 1.37%; in the experiment with SB.msgc-1 [2], 3.36%. The “area under the dose-response curve” value in the experiment on SB.mhdgc-1 [3] turned out to be 440; in the experiment with SB.msgc-1 [4], 517.
In the case of `CNC(=O)c1c(F)cccc1Nc1nc(Nc2cc3c(cc2OC)CCN3C(=O)CN(C)C)nc2[nH]ccc12` (top concentration 46.0829 µM), the viability in the experiment on SB.mhdgc-1 [1] worked out at 1.17%; in the experiment on SB.msgc-1 [2] it was 2.95%. Further, the “area under the dose-response curve” value in the experiment with SB.mhdgc-1 [3] came out at 302; with SB.msgc-1 [4], 460.
For the molecule `CNC(=O)c1ccc2c(c1)NC(=O)/C2=C(\Nc1cccc(CN(C)C)c1)c1ccccc1` (top concentration 46.0829 µM), the viability stood at 41.1% with SB.mhdgc-1 [1] and 64.9% in the experiment with SB.msgc-1 [2]. The entries for the “area under the dose-response curve” value in the experiment with SB.mhdgc-1 [3] and with SB.msgc-1 [4] were 413 and 518, respectively.
On to `CNC(=O)Nc1ccc(-c2nc(N3CC4CCC(C3)O4)c3cnn(C4CCC5(CC4)OCCO5)c3n2)cc1` (top concentration 46.0829 µM), for which the figures for the viability with SB.mhdgc-1 [1] and with SB.msgc-1 [2] were 3.97% and 40.1%, respectively. For the same molecule, the entries for the “area under the dose-response curve” value in the experiment with SB.mhdgc-1 [3] and with SB.msgc-1 [4] were 268 and 388, respectively.
In the case of `CN\1C(=O)/C(=C(\N=C1N2CCCC[S+]2([O-])=O)C(=O)NCC3=CC=C(F)C=C3)O` (top concentration 46.0829 µM), the viability is 130% in the experiment on SB.mhdgc-1 [1] and 99.9% with SB.msgc-1 [2]. Also, the “area under the dose-response curve” value was 620 with SB.mhdgc-1 [3] and 544 with SB.msgc-1 [4].
